For one assay, the target named is KRAS G12C (Homo sapiens, UniProt P01116, G12C). Description: GDP-GTP exchange assay (KRAS_G12C exchange). Format: biochemical. Particulars: bodipy-GDP loaded KRAS G12C 2.5 nM, SOS1 150 nM, GppNHp; 2 hours pre-incubation, 2 hours reaction; read-out: G12C_exchange. On the procedure: Example A. GDP-GTP Exchange Assay
The inhibitor potency of the exemplified compounds was determined in a fluorescence based guanine nucleotide exchange assay, which measures the exchange of bodipy-GDP (fluorescently labeled GDP) for GppNHp (Non-hydrolyzable GTP analog) to generate the active state of KRAS in the presence of SOS1 (guanine nucleotide exchange factor). Inhibitors were serially diluted in DMSO and a volume of 0.1 μL was transferred to the wells of a black low volume 384-well plate. 5 μL/well volume of bodipy-loaded KRAS G12C diluted to 5 nM in assay buffer (25 mM Hepes pH 7.5, 50 mM NaCl, 10 mM MgCl2 and 0.01% Brij-35) was added to the plate and pre-incubated with inhibitor for 2 hours at ambient temperature. Appropriate controls (enzyme with no inhibitor or with a G12C inhibitor (AMG-510)) were included on the plate. The exchange was initiated by the addition of a 5 μL/well volume containing 1 mM GppNHp and 300 nM SOS1 in assay buffer. The 10 μL/well reaction concentration of the bodipy-loaded KRAS G12C, GppNHp, and SOS1 were 2.5 nM, 500 uM, and 150 nM, respectively. The reaction plates were incubated at ambient temperature for 2 hours, a time estimated for complete GDP-GTP exchange in the absence of inhibitor. For the KRAS G12D and G12V mutants, similar guanine nucleotide exchange assays were used with 2.5 nM as final concentration for the bodipy loaded KRAS proteins and with 4 hours and 3 hours incubation after adding GppNHp-SOS1 mixture for G12D and G12V respectively. A cyclic peptide described to selectively bind G12D mutant (Sakamoto et al., BBRC 484.3 (2017), 605-611) or internal compounds with confirmed binding were used as positive controls in the assay plates. Fluorescence intensities were measured on a PheraStar plate reader instrument (BMG Labtech) with excitation at 485 nm and emission at 520 nm.
Either GraphPad prism or XLfit was used to analyze the data. The IC50 values were derived by fitting the data to a four parameter logistic equation producing a sigmoidal dose-response curve with a variable Hill coefficient. Prism equation: Y=Bottom+(Top−Bottom)/(1+10^((Log lC50−X)*Hill slope)); XLfit equation: Y=(A+((B−A)/(1+((X/C)^D)))) where X is the logarithm of inhibitor concentration and Y is the response.

The subject of assay [1] is MIA PaCa-2 (KRAS G12C) cells. Description: Cellular pERK HTRF assay (KRAS_G12C pERK). Format: cell-based, human. As to conditions: read-out: G12C_pERK. On the procedure: Example C: Cellular pERK HTRF Assay
MIA PaCa-2 (KRAS G12C; ATCC® CRL-1420), A427 (KRAS G12D; ATCC® HTB53), HPAF-II (KRAS G12D; ATCC® CRL-1997) and NCI-H838 (KRAS WT; ATCC® CRL-5844) cells are purchased from ATCC and maintained in RPMI 1640 media supplemented with 10% FBS (Gibco/Life Technologies). The cells are plated at 5000 cells per well (8 uL) into Greiner 384-well low volume, flat-bottom, tissue culture treated white plates and incubated overnight at 37° C., 5% CO2. The next morning, test compound stock solutions are diluted in media at 3× the final concentration, and 4 uL are added to the cells. The plate is mixed by gentle rotation for 30 seconds (250 rpm) at room temperature. The cells are incubated with the KRAS G12C and G12D compounds for 4 hours or 2 hours respectively at 37° C., 5% CO2.
4 uL of 4× lysis buffer with blocking reagent (1:25) (Cisbio) are added to each well and plates are rotated gently (300 rpm) for 30 minutes at room temperature. 4 uL per well of Cisbio anti Phospho-ERK 1/2 d2 is mixed with anti Phospho-ERK 1/2 Cryptate (1:1) are added to each well, mixed by rotation and incubated overnight in the dark at room temperature. Plates are read on the Pherastar plate reader at 665 nm and 620 nm wavelengths. IC50 determination is performed by fitting the curve of inhibitor percent inhibition versus the log of the inhibitor concentration using the GraphPad Prism 7 software.
A general note: In TR-FRET formats the signal depends on donor and acceptor labels being close together.

Where [2] appears, read: Homo sapiens, MIA PaCa-2, 4 hours incubation.

Structures are written as SMILES. Read-outs that look alike come from different tables or passages of the source. Some results are limits rather than exact numbers.

Chain of KRAS G12C (P01116 1-188 isoform P01116-2 G12C): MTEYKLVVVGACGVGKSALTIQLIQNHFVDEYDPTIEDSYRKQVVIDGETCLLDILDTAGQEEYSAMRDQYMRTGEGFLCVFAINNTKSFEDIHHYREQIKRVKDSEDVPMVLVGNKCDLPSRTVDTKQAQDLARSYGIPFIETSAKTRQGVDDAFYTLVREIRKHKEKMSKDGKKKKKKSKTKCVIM

For the molecule `C=CC(=O)N1C[C@H](C)[C@@H](n2cnc3c(OC[C@@H]4CCCN4C)nc4c(F)c(-c5cc(O)cc6ccccc56)c(Cl)cc4c32)C1` (single isomer, unassigned) [Example 29b], the IC50 (on KRAS G12C; in assay [1] (setting [2])) was no more than 100 nM in each case.

`C=CC(=O)N1CCC(n2cnc3c(OC[C@@H]4CCCN4C)nc4c(F)c(-c5cc(O)cc6ccccc56)c(Cl)cc4c32)CC1CC#N` (single isomer, unassigned) [Example 36a]: the IC50 (on KRAS G12C; in assay [1] (setting [2])) was no more than 100 nM throughout.

`C=CC(=O)N1CCC(n2cnc3c(OC[C@@H]4CCCN4C)nc4c(F)c(-c5c(C)ccc6[nH]ncc56)c(Cl)cc4c32)CC1CC#N` (single isomer, unassigned) [Example 37a]: the IC50 (at KRAS G12C; in assay [1] (setting [2])) was no more than 100 nM each time.

For `C=CC(=O)N1CCC(n2cnc3c(OC[C@@H]4CCCN4C)nc4c(F)c(-c5cc(O)ccc5C)c(Cl)cc4c32)CC1CC#N` (single isomer, unassigned) [Example 39a], the IC50 (on KRAS G12C; in assay [1] (setting [2])) was no more than 100 nM in each case.

Take `C=CC(=O)N1CCC(n2cnc3c(OC[C@@H]4CCCN4C)nc4c(F)c(-c5c(C)c(Cl)cc6[nH]ncc56)c(Cl)cc4c32)CC1CC#N` (single isomer, unassigned) [Example 40a]: the IC50 (on KRAS G12C; in assay [1] (setting [2])) was no more than 100 nM throughout.

On to `C=CC(=O)N1CC[C@H](n2cnc3c(N4CC(N(C)C)C4)nc4c(F)c(-c5cc(O)cc6ccccc56)c(Cl)cc4c32)C[C@H]1CC#N` (single isomer, unassigned) [Example 47a], for which the IC50 (at KRAS G12C; in assay [1] (setting [2])) was no more than 100 nM throughout.

As to `C=CC(=O)N1CC[C@H](n2cnc3c(N4CC(N(C)C)C4)nc4c(F)c(-c5cc(O)cc(C)c5C)c(Cl)cc4c32)C[C@H]1CC#N` (single isomer, unassigned) [Example 52a], the IC50 (on KRAS G12C; in assay [1] (setting [2])) was no more than 100 nM in each case.

As to `C=CC(=O)N1CC[C@H](n2cnc3c(N4CC(N(C)C)C4)nc4c(F)c(-c5cc(O)ccc5C)c(Cl)cc4c32)C[C@H]1CC#N` (single isomer, unassigned) [Example 53a], the IC50 (on KRAS G12C; in assay [1] (setting [2])) was no more than 100 nM in each case.

On to `C=CC(=O)N1CC[C@H](n2cnc3c(N4CC(N(C)C)C4)nc4c(F)c(-c5cc(O)ccc5Cl)c(Cl)cc4c32)C[C@H]1CC#N` (single isomer, unassigned) [Example 54a], for which the IC50 (on KRAS G12C; in assay [1] (setting [2])) was no more than 100 nM each time.

Take `C=CC(=O)N1CC[C@H](n2cnc3c(N4CC(N(C)C)C4)nc4c(F)c(-c5ccc(F)c6cccnc56)c(Cl)cc4c32)C[C@H]1CC#N` (single isomer, unassigned) [Example 64a]: the IC50 (on KRAS G12C; in assay [1] (setting [2])) was no more than 100 nM each time.

For `C=CC(=O)N1CC[C@H](n2cnc3c(N4CC(N(C)C)C4)nc4c(F)c(-c5cccc6cnccc56)c(Cl)cc4c32)C[C@H]1CC#N` (single isomer, unassigned) [Example 70a], the IC50 (at KRAS G12C; in assay [1] (setting [2])) was no more than 100 nM each time.

As for `C=CC(=O)N1CC[C@H](n2cnc3c(N4CC(N(C)C)C4)nc4c(F)c(-c5cccc6ccncc56)c(Cl)cc4c32)C[C@H]1CC#N` (single isomer, unassigned) [Example 71a], the IC50 (at KRAS G12C; in assay [1] (setting [2])) was no more than 100 nM in each case.

`C=CC(=O)N1CC[C@H](n2cnc3c(N4CC(N(C)C)C4)nc4c(F)c(-c5cccc6ccncc56)c(Cl)cc4c32)C[C@H]1CC#N` (single isomer, unassigned) [Example 71b]: the IC50 (on KRAS G12C; in assay [1] (4 hours incubation)) was no more than 100 nM throughout.

For `C=CC(=O)N1CC[C@H](n2cnc3c(N4CC(N(C)C)C4)nc4c(F)c(-c5cccc6cccnc56)c(Cl)cc4c32)C[C@H]1CC#N` (single isomer, unassigned) [Example 72a], the IC50 (on KRAS G12C; in assay [1] (setting [2])) was no more than 100 nM in each case.

As for `C=CC(=O)N1CC[C@H](n2cnc3c(N4CC(N(C)C)C4)nc4c(F)c(-c5cncc6ccccc56)c(Cl)cc4c32)C[C@H]1CC#N` (single isomer, unassigned) [Example 73a], the IC50 (at KRAS G12C; in assay [1] (setting [2])) was no more than 100 nM throughout.

For the molecule `C=CC(=O)N1CC[C@H](n2cnc3c(N4CC(N(C)C)C4)nc4c(F)c(-c5cncc6ccccc56)c(Cl)cc4c32)C[C@H]1CC#N` (single isomer, unassigned) [Example 73b], the IC50 (on KRAS G12C; in assay [1] (4 hours incubation)) was no more than 100 nM throughout.

For `C=CC(=O)N1CC[C@H](n2cnc3c(N4CC(N(C)C)C4)nc4c(F)c(-c5ccnc6ccccc56)c(Cl)cc4c32)C[C@H]1CC#N` (single isomer, unassigned) [Example 74a], the IC50 (at KRAS G12C; in assay [1] (setting [2])) was no more than 100 nM throughout.

With `COC/C=C/C(=O)N1CC[C@H](n2cnc3c(N4CC(C)(N(C)C)C4)nc4c(F)c(-c5c(C)c(Cl)cc6[nH]ncc56)c(Cl)cc4c32)C[C@H]1CC#N` (single isomer, unassigned) [Example 80a], the IC50 (at KRAS G12C; in assay [1] (setting [2])) was no more than 100 nM throughout.

In the case of `CC#CC(=O)N1CC[C@H](n2nnc3c(OC[C@@H]4CCCN4C)nc4c(F)c(-c5cccc(Cl)c5C)c(Cl)cc4c32)C[C@H]1CC#N` (single isomer, unassigned) [Example 87a], the IC50 (on KRAS G12C; in assay [1] (setting [2])) was no more than 100 nM in each case.

Take `C=CC(=O)N1CC[C@H](n2cnc3c(OC[C@@H]4CCCN4C)nc4c(F)c(-c5cccc(Cl)c5C)c(Cl)cc4c32)C[C@H]1CC#N` (single isomer, unassigned) [Example 118a]: the IC50 (at KRAS G12C; in assay [1] (setting [2])) was no more than 100 nM throughout.

As to `C=CC(=O)N1CC[C@H](n2cnc3c(OC[C@H]4CCCN4C)nc4c(F)c(-c5cccc(Cl)c5C)c(Cl)cc4c32)C[C@H]1CC#N` (single isomer, unassigned) [Example 119a], the IC50 (at KRAS G12C; in assay [1] (setting [2])) was no more than 100 nM in each case.

In the case of `C=CC(=O)N1CC[C@H](n2nnc3c(N4CC(N(C)C)C4)nc4c(F)c(-c5c(C)c(Cl)cc6c5cnn6C)c(Cl)cc4c32)C[C@H]1CC#N` (single isomer, unassigned) [Example 150a], the IC50 (at KRAS G12C; in assay [1] (setting [2])) was no more than 100 nM in each case.

Take `COC/C=C/C(=O)N1CC[C@H](n2nnc3c(OC[C@@H]4CCCN4C)nc4c(F)c(-c5ccccc5C(F)(F)F)c(C)cc4c32)C[C@H]1CC#N` (single isomer, unassigned) [Example 157a]: the IC50 (on KRAS G12C; in assay [1] (setting [2])) was no more than 100 nM each time.

Take `Cc1cc2c(nc(OC[C@@H]3CCCN3C)c3nnn([C@H]4CCN(C(=O)/C=C/CF)[C@H](CC#N)C4)c32)c(F)c1-c1ccccc1C(F)(F)F` (single isomer, unassigned) [Example 159a]: the IC50 (on KRAS G12C; in assay [1] (setting [2])) was no more than 100 nM throughout.

As to `C=CC(=O)N1CC[C@H](n2nnc3c(OC[C@@H]4CCCN4C)nc4c(F)c(-c5ccccc5C(F)(F)F)c(C)cc4c32)C[C@H]1CC#N` (single isomer, unassigned) [Example 160a], the IC50 (on KRAS G12C; in assay [1] (setting [2])) was no more than 100 nM throughout.

`Cc1cc2c(nc(N3CC(N(C)C)C3)c3nnn([C@H]4CCN(C(=O)/C=C/CN(C)C)[C@H](CC#N)C4)c32)c(F)c1-c1ccccc1C(F)(F)F` (single isomer, unassigned) [Example 163a]: the IC50 (at KRAS G12C; in assay [1] (setting [2])) was no more than 100 nM each time.

(Values after patent US20210269434A1, “TRICYCLIC COMPOUNDS AS INHIBITORS OF KRAS” (Incyte Corporation, priority 2020, published 2021).)
